# Measured values from patent publication US20250230193A1, “CYCLIC COMPOUND HAVING SELECTIVE KRAS INHIBITORY EFFECT ON HRAS AND NRAS” (CHUGAI SEIYAKU KABUSHIKI KAISHA, priority 2022, published 2025).
# Where a SMILES comes first, the peptide text is derived from it. Bridges are numbered along the chain shown (N, C = ends). [ ]: non-standard residue; d: D form. The star is where a group is joined. hPhe(3-Cl-4-CF3) = N[C@@H](CCc1ccc(C(F)(F)F)c(Cl)c1)C(=O)O; NPrPhe(4-CF3) = CCCN[C@@H](Cc1ccc(C(F)(F)F)cc1)C(=O)O; NMeGly(cPent) = CN[C@H](C(=O)O)C1CCCC1; Pro(4,4-F2) = O=C(O)[C@@H]1CC(F)(F)CN1; NMeD = CN[C@@H](CC(=O)O)C(=O)O; NMeL = CN[C@@H](CC(C)C)C(=O)O; Morpholide = C1CN(*)CCO1; NMeA = CN[C@@H](C)C(=O)O; Aze = O=C(O)[C@@H]1CCN1; Ac4c = NC1(C(=O)O)CCC1; Sar = CNCC(=O)O
# Tests used:
# [1] = biological target: GDP-bound NRAS wild-type protein (Homo sapiens, UniProt P01111); test: Binding to NRAS by surface plasmon resonance (SPR), Single Cycle Kinetics; details: SPR
# [2] = biological target: GDP-bound HRAS wild-type protein (Homo sapiens, UniProt P01112); test: Binding to HRAS by surface plasmon resonance (SPR), Single Cycle Kinetics; details: for HRAS/KRAS (ratio of KD value for HRAS to KD value for KRAS) / HRAS/KRAS (ratio of KD value with respect to HRAS to KD value with respect to KRAS): GDP-bound HRAS wild-type vs GDP-bound KRAS wild-type
# [3] = KD ratio, GDP-bound NRAS wild-type vs GDP-bound KRAS wild-type
# [4] = KD ratio HRAS/KRAS, SPR, GDP-bound wild-type proteins
# [5] = KD ratio HRAS/KRAS, class symbols
# Chain of GDP-bound NRAS wild-type protein (P01111 whole entry): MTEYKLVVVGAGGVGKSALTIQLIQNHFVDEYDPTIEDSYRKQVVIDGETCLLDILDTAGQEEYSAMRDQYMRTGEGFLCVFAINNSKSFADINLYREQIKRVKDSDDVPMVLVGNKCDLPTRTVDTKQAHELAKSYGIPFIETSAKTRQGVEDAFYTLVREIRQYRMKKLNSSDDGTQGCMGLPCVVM
# Chain of GDP-bound HRAS wild-type protein (P01112 whole entry): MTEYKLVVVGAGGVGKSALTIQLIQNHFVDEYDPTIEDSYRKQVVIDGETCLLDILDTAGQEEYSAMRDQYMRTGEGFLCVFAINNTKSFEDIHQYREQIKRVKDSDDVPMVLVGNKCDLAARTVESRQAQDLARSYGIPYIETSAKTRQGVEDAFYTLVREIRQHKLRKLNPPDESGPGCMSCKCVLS
compound,measurement,setting,value
CCO[C@@H]1C[C@H]2C(=O)NC3(CC(C)(C)C3)C(=O)N(C)[C@@H](C3CCCC3)C(=O)N(C)[C@H](C(=O)N(C)CC)CC(=O)N(C)[C@@H](COC)C(=O)N[C@@H]([C@@H](C)CC)C(=O)N(C)CC(=O)N(C)[C@H]3C/C=C\CCN(C3=O)[C@@H](Cc3ccc(C(F)(F)F)cc3)C(=O)N(C)CC(=O)N[C@@H](CCc3cc(F)c(C(F)(F)F)c(F)c3)C(=O)N2C1 [PP1671],NRAS/KRAS (ratio of KD value for NRAS to KD value for KRAS),[1]; [3],A (a compound having 10 or more and less than 20 is denoted as A)
same,HRAS/KRAS (ratio of KD value for HRAS to KD value for KRAS),"[2]; KD ratio, SPR",A (a compound having 10 or more and less than 20 is denoted as A)
C=CCC[C@H]1C(=O)N[C@@H]([C@@H](C)CC)C(=O)N(C)CC(=O)N(C)[C@H]2CCCCN(C2=O)[C@@H](Cc2ccc(C(F)(F)F)cc2)C(=O)N(C)CC(=O)N[C@@H](CCc2cc(F)c(C(F)(F)F)c(F)c2)C(=O)N2C[C@H](OCC)C[C@H]2C(=O)N[C@](C)(CC=C)C(=O)N(C)[C@@H](C2CCCC2)C(=O)N(C)[C@H](C(=O)N2CCOCC2)CC(=O)N1C [PP0875],NRAS/KRAS (ratio of KD value with respect to NRAS to KD value with respect to KRAS),[1]; [3],C (A compound having a KD ratio of 0.1 or more and less than 3 is denoted as C)
same,HRAS/KRAS (ratio of KD value with respect to HRAS to KD value with respect to KRAS),"[2]; KD ratio, SPR",B (a compound having 3 or more and less than 10 is denoted as B)
"CCCN1C(=O)[C@@H]2CCN2C(=O)[C@H](C)N(C)C(=O)[C@H]([C@@H](C)CC)NC(=O)[C@H](CC(C)C)N(C)C(=O)C[C@@H](C(=O)N2CCOCC2)N(C)C(=O)[C@H](C2CCCC2)N(C)C(=O)C2(CCC2)NC(=O)[C@@H]2CC(F)(F)CN2C(=O)[C@H](CCc2ccc(C(F)(F)F)c(Cl)c2)NC(=O)CN(C)C(=O)[C@@H]1Cc1ccc(C(F)(F)F)cc1 [PP0208] ([NMeL]I[NMeA][Aze][NPrPhe(4-CF3)][Sar][hPhe(3-Cl-4-CF3)][Pro(4,4-F2)][Ac4c][NMeGly(cPent)][NMeD]-Morpholide; lactam N-11)",NRAS/KRAS (ratio of KD for GDP-bound NRAS wild-type to KD for KRAS),[1]; KD ratio NRAS/KRAS,C (A compound having a KD ratio of 0.1 or more and less than 3 is denoted as C)
same,HRAS/KRAS (ratio of KD for GDP-bound HRAS wild-type to KD for KRAS),"[2]; KD ratio HRAS/KRAS, SPR",C (A compound having a KD ratio of 0.1 or more and less than 3 is denoted as C)
CCO[C@@H]1C[C@H]2C(=O)NC3(CC(C)(C)C3)C(=O)N(C)[C@@H](C(CC)CC)C(=O)N(C)[C@H](C(=O)N(C)C)CC(=O)N(C)[C@@H](COC)C(=O)N[C@@H]([C@@H](C)CC)C(=O)N(C)CC(=O)N(C)[C@H]3C/C=C\CCN(C3=O)[C@@H](CC3CCC(F)(F)CC3)C(=O)N(C)CC(=O)N[C@@H](CCc3ccc(C(F)(F)F)c(OC)c3)C(=O)N2C1 [PP2438],NRAS/KRAS (ratio of KD value with respect to NRAS to KD value with respect to KRAS),[1]; GDP-bound NRAS wild-type vs GDP-bound KRAS wild-type,A (a compound having 10 or more and less than 20 is denoted as A)
same,HRAS/KRAS (ratio of KD value with respect to HRAS to KD value with respect to KRAS),[2]; SPR,A (a compound having 10 or more and less than 20 is denoted as A)
CCC(CC)[C@H]1C(=O)N(C)[C@H](C(=O)N(C)C)CC(=O)N(C)[C@@H](COC)C(=O)N[C@@H]([C@@H](C)CC)C(=O)N(C2CC2)CC(=O)N(C)[C@H]2C/C=C\CCN(C2=O)[C@@H](CC2CCCCC2)C(=O)N(C)CC(=O)N[C@@H](CCc2ccc(Cl)c(Cl)c2)C(=O)N2C[C@H](OC(C)C)C[C@H]2C(=O)NC2(CC(C)(C)C2)C(=O)N1C [PP2517],HRAS/KRAS (ratio of KD value with respect to HRAS to KD value with respect to KRAS),[2]; SPR,A (a compound having 10 or more and less than 20 is denoted as A)
CCO[C@@H]1C[C@H]2C(=O)NC3(CC(C)(C)C3)C(=O)N(C)[C@@H](C3CCCC3)C(=O)N(C)[C@H](C(=O)N(C)C)CC(=O)N(C)[C@H]3CCCCCCc4ccc(cc4)C[C@@H](C(=O)N(C)CC(=O)N[C@@H](CCc4ccc(C(F)(F)F)c(OC)c4)C(=O)N2C1)N1CC/C=C\C[C@@H](C1=O)N(C)C(=O)CN(C1CC1)C(=O)[C@H]([C@@H](C)CC)NC3=O [PP3070],HRAS/KRAS (ratio of KD value with respect to GDP-bound HRAS wild-type protein to KD value with respect to KRAS),[2]; [4],B (a compound having 3 or more and less than 10 is denoted as B)
"CCC[C@H]1C(=O)N[C@@H]([C@@H](C)CC)C(=O)N(C)CC(=O)N(C)[C@H]2C/C=C\CCN(C2=O)[C@@H](Cc2ccc(C(F)(F)F)cc2)C(=O)N(C)CC(=O)N[C@@H](CCc2ccc(C(F)(F)F)c(OC)c2)C(=O)N2C[C@H](OCC)C[C@H]2C(=O)N(C)C2(CCC2)C(=O)N(C)[C@@H](C2CCCC2)C(=O)N(C)[C@H](C(=O)N2CCCCC2)CC(=O)N1C [PP3103, (2S,8S,12R,14S,20S,23S,27S,30S,36S,38Z)-20-cyclopentyl-12-ethoxy-8-[2-[3-methoxy-4-(trifluoromethyl)phenyl]ethyl]-4,16,19,22,26,32,35-heptamethyl-30-[(1S)-1-methylpropyl]-23-(piperidine-1-carbonyl)-27-propyl-2-[[4-(trifluoromethyl)phenyl]methyl]spiro[1,4,7,10,16,19,22,26,29,32,35-undecazatricyclo[34.5.1.0^10,14]dotetracont-38-ene-17,1′-cyclobutane]-3,6,9,15,18,21,25,28,31,34,42-undecone]",HRAS/KRAS (ratio of KD value with respect to GDP-bound HRAS wild-type protein to KD value with respect to KRAS),[2]; [4],A (a compound having 10 or more and less than 20 is denoted as A)
CCO[C@@H]1C[C@H]2C(=O)NC3(CC(C)(C)C3)C(=O)N(C)[C@@H](C3CCCC3)C(=O)N(C)[C@H](C(=O)N(C)CC)CC(=O)N(C)[C@@H](C3CCC3)C(=O)N[C@@H]([C@@H](C)CC)C(=O)N(C)CC(=O)N(C)[C@H]3C/C=C\CCN(C3=O)[C@@H](Cc3ccc(C(F)(F)F)cc3)C(=O)N(C)CC(=O)N[C@@H](CCc3ccc(C(F)(F)F)c(OC)c3)C(=O)N2C1 [PP1985],HRAS/KRAS (ratio of KD value for HRAS to KD value for KRAS),"[2]; KD ratio, SPR",B (a compound having 3 or more and less than 10 is denoted as B)
CCC[C@H]1C(=O)N[C@@H]([C@@H](C)CC)C(=O)N(C)CC(=O)N(C)[C@H]2C/C=C\CCN(C2=O)[C@@H](Cc2ccc(C)cc2)C(=O)N(C)CC(=O)N[C@@H](CCc2ccc(Cl)c(OC)c2)C(=O)N2C[C@H](OCC)C[C@H]2C(=O)NC2(CC(C)(C)C2)C(=O)N(C)[C@@H](C(CC)CC)C(=O)N(C)[C@H](C(=O)N(C)C)CC(=O)N1C [PP2791],HRAS/KRAS (ratio of KD value with respect to GDP-bound HRAS wild-type protein to KD value with respect to KRAS),[2]; [5],A (a compound having 10 or more and less than 20 is denoted as A)
CCC[C@H]1C(=O)N[C@@H](CC(C)C)C(=O)N(C2CC2)CC(=O)N(C)[C@H]2C/C=C\CCN(C2=O)[C@@H](Cc2ccc(C)cc2)C(=O)N(C)CC(=O)N[C@@H](CCc2ccc(C(F)(F)F)c(Cl)c2)C(=O)N2C[C@H](OCC)C[C@H]2C(=O)NC2(CCC2)C(=O)N(C)[C@@H](C2CCCC2)C(=O)N(C)[C@H](C(=O)N(C)C)CC(=O)N1C [PP2543],HRAS/KRAS (ratio of KD value with respect to GDP-bound HRAS wild-type protein to KD value with respect to KRAS),[2]; [5],B (a compound having 3 or more and less than 10 is denoted as B)
CC[C@H](C)[C@@H]1NC(=O)[C@H](COC)N(C)C(=O)C[C@@H](C(=O)N2CCCCC2)N(C)C(=O)[C@H](C2CCCC2)N(C)C(=O)C2(CC(C)(C)C2)NC(=O)[C@@H]2C[C@@H](OC(C)C)CN2C(=O)[C@H](CCc2cc(F)c(C(F)(F)F)c(F)c2)NC(=O)CN(C)C(=O)[C@H](Cc2ccc(C(F)(F)F)cc2)N2CC/C=C\C[C@@H](C2=O)N(C)C(=O)CN(C)C1=O [PP2663],HRAS/KRAS (ratio of KD value with respect to GDP-bound HRAS wild-type protein to KD value with respect to KRAS),[2]; [5],A (a compound having 10 or more and less than 20 is denoted as A)
